{
  "source": "ChEMBL document CHEMBL4385653",
  "about": "“Design, synthesis, biological evaluation of benzoyl amide derivatives containing nitrogen heterocyclic ring as potential VEGFR-2 inhibitors” (Bioorg Med Chem, 2019)",
  "key": {"MCF7 [1]": {"test_system": "MCF7", "assay": "Induction of apoptosis in human MCF7 cells assessed as late apoptotic cells level at 4 uM incubated for 12 hrs by Annexin V-FITC/PI double staining based flow cytometry analysis (reference value: 3.1%)", "type": "functional"}, "MCF7 [2]": {"test_system": "MCF7", "assay": "Inhibition of cell migration of human MCF7 cells at 4 uM by wound healing assay", "type": "functional, cell-based", "details": "TDE = time-dependent effect"}, "MCF7 [3]": {"test_system": "MCF7", "assay": "Induction of apoptosis in human MCF7 cells assessed as late apoptotic cells level at 4 uM incubated for 24 hrs by Annexin V-FITC/PI double staining based flow cytometry analysis (reference value: 3.1%)", "type": "functional"}, "MCF7 [4]": {"test_system": "MCF7", "assay": "Antiproliferative activity against human MCF7 cells assessed as inhibition of cell proliferation incubated for 48 hrs by MTT assay", "type": "functional, cell-based", "details": "MCF7, 48 h"}, "[5]": {"biological_target": "Fibroblast growth factor receptor 1 (Homo sapiens, UniProt P11362)", "sequence (P11362 whole entry)": "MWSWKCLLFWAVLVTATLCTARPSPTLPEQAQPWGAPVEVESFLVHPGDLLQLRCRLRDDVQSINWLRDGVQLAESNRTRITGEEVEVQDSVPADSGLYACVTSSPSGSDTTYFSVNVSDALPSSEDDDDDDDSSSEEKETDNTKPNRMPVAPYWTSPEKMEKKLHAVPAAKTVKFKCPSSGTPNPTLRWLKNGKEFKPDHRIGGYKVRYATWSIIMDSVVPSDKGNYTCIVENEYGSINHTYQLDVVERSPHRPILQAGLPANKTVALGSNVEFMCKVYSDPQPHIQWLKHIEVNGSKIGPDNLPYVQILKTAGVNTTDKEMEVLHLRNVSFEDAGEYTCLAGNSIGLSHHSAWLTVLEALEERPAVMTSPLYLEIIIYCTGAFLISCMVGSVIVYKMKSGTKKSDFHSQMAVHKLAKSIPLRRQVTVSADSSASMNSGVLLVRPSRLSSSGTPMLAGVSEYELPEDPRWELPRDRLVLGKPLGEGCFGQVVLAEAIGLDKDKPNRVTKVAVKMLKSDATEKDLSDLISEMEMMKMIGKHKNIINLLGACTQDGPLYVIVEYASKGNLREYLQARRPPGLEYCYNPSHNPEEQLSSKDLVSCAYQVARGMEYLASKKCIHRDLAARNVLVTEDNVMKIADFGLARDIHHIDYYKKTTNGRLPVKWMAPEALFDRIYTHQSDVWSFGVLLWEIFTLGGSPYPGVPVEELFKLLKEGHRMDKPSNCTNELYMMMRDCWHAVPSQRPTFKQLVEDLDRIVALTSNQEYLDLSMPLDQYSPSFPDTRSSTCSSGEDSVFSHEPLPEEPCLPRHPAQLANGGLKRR", "assay": "Inhibition of bFGFR (unknown origin) incubated for 30 mins by enzyme immunoassay"}, "MCF7 [6]": {"test_system": "MCF7", "assay": "Suppression of mitochondrial membrane potential in human MCF7 cells assessed as green fluorescent cells level at 8 uM incubated for 12 hrs by rhodamine-123 dye based flow cytometry analysis (reference value: 0.29%)", "type": "functional"}, "MCF7 [7]": {"test_system": "MCF7", "assay": "Induction of apoptosis in human MCF7 cells assessed as viable cells level at 2 uM incubated for 24 hrs by Annexin V-FITC/PI double staining based flow cytometry analysis (reference value: 82%)", "type": "functional"}, "MCF7 [8]": {"test_system": "MCF7", "assay": "Induction of apoptosis in human MCF7 cells at 4 uM by Annexin V-FITC/PI double staining based flow cytometry analysis", "type": "functional, cell-based", "details": "TDE = time-dependent effect"}, "MCF7 [9]": {"test_system": "MCF7", "assay": "Induction of apoptosis in human MCF7 cells assessed as viable cells level at 4 uM incubated for 24 hrs by Annexin V-FITC/PI double staining based flow cytometry analysis (reference value: 82%)", "type": "functional"}, "MCF7 [10]": {"test_system": "MCF7", "assay": "Induction of apoptosis in human MCF7 cells assessed as early apoptotic cells level at 4 uM incubated for 12 hrs by Annexin V-FITC/PI double staining based flow cytometry analysis (reference value: 1.06%)", "type": "functional"}, "MCF7 [11]": {"test_system": "MCF7", "assay": "Suppression of mitochondrial membrane potential in human MCF7 cells assessed as increase in green fluorescent cells incubated for 12 hrs by rhodamine-123 dye based flow cytometry analysis", "type": "functional, cell-based"}},
  "data": [
    {"smiles": "Cc1ccc(-n2cc(NC(=O)c3cccc(NS(=O)(=O)c4ccc(Cl)cc4)c3)cn2)cc1", "values": [
      {"measurement": "Activity", "setting": "MCF7 [1]", "value": 11.3, "unit": "%"},
      {"measurement": "inhibition", "setting": "MCF7 [2]", "value": "Tde"},
      {"measurement": "Activity", "setting": "MCF7 [3]", "value": 18.7, "unit": "%"},
      {"measurement": "IC50", "setting": "MCF7 [4]", "value": 1.08, "unit": "µM"},
      {"measurement": "IC50", "setting": "[5]", "value": 17.2, "unit": "µM"},
      {"measurement": "Activity", "setting": "MCF7 [6]", "value": 37.15, "unit": "%"},
      {"measurement": "Activity", "setting": "MCF7 [7]", "value": 70.3, "unit": "%"},
      {"measurement": "Activity", "setting": "MCF7 [8]", "value": "Tde"},
      {"measurement": "Activity", "setting": "MCF7 [9]", "value": 64, "unit": "%"},
      {"measurement": "Activity", "setting": "MCF7 [10]", "value": 22.7, "unit": "%"},
      {"measurement": "Activity", "setting": "MCF7 [11]", "value": "Dose-dependent effect"}
    ]}
  ]
}
